Measurements published in patent US6444684B1 (priority 1993, dated 2002).
Where two headings read alike, the source gives them in different places.

What was measured:
Renal Cancer cell lines = assay: NCI in vitro anticancer screen (SRB), renal cancer subpanel; conditions: 48 hours exposure; average percent growth over the cell lines
Description: (§1) Compounds chosen for the program are initially tested in an in vitro anticancer screen. A total of fifty-five human tumor cell lines, derived from nine cancer types (lung, colon, melanoma, renal, ovarian, brain, prostate, breast and leukemia), are used in this screen. The tumor cells are inoculated over a series of standard 96-well microtiter plates on day 0. These cells are then preincubated on the microtiter plates for 24 hours. The test compounds are added to the wells in five 10-fold dilutions starting from the highest soluble concentration. Each compound is tested against every cell line in the panel. The compounds are incubated for 48 hours with the tumor cell lines. At the termination of the assay, the cells are fixed in situ, washed, and dried. Sulforhodamine B (SRB), a pink anionic dye that binds to the basic amino acids of trichloroacetic acid-fixed cells, is added. The cells are washed again, and the remaining dye is a function of the adherent cell mass. The bound stain is solubilized and measured spectrophotometrically. The data are entered from automatic reading devices into a computer for subsequent storage and analysis.
(§2) The measured effect of each test compound on the cell lines is calculated according to one or the other of the following two expressions:
(§3) If (Mean ODtest−Mean ODtzero)□0, then PG=100×(Mean ODtest−Mean ODtzero)/(Mean ODctrl−Mean ODtzero);
(§4) If (Mean ODtest−Mean ODtzero)<0, then PG=100×(Mean ODtest−Mean ODtzero)/Meantzero;
(§5) First, a data sheet is provided which lists, for each cell line, the Mean ODtzero, the Mean ODctrl, the Mean ODtest for each of the five concentrations, the calculated PGs for each concentration, and the response parameters G150, TGI, and LC50.
(§6) Third, mean graphs at each of the principal response parameters (GI50, TGI, and LC50) are provided. […] Since the bar scale is logarithmic, a bar two units to the right implies the compound achieved the response parameter (e.g., GI50) for the cell line at a concentration 1/100 the mean concentration required over all cell lines, and thus the cell line is unusually sensitive to that compound. Bars extending to the left correspondingly imply sensitivity less than the mean. Thus, the mean graphs facilitate visual scanning of data for potential patterns of selectivity for particular cell lines or for particular subpanels with respect to a selected response parameter.

Colon Cancer cell lines = assay: NCI in vitro anticancer screen (SRB), colon cancer subpanel; conditions: 48 hours exposure; average percent growth over the cell lines
Description: as §1, §2, §3, §4

[1] = system: Ovarian Cancer cell lines; assay: NCI in vitro anticancer screen (SRB), ovarian cancer subpanel; conditions: 48 hours exposure; average percent growth over the cell lines
Description: as §1, §2, §3, §4

L. major = L. major footpad infection in Balb/c mice; format: in vivo; conditions: 80 mg/kg/day intraperitoneally in corn oil for seven days
Description: Compound 1 dissolved in corn oil was administered intraperitoneally to Balb/c mice (Ball State University colony) at 80 mg/kg/day for seven days beginning one day prior to injection of 5×10^6 L. major promastigotes in medium 199 in the hind foot. Control mice received an equivalent amount of corn oil and L. major. Beginning on day 8, the thickness of the footpads top to bottom was measured using a vernier caliper. Footpad swelling indicates progression of the disease. The percent increase in footpad size was calculated as: [formula]
The percent increase in footpad size is for triplicate mice in the control group and duplicate mice in the treated group.

[2] = system: Prostate Cancer cell lines; assay: NCI in vitro anticancer screen (SRB), prostate cancer subpanel; conditions: 48 hours exposure; average percent growth over the cell lines
Description: as §1, §2, §3, §4

[3] = system: K/1-NRKE tumor (ras^K-transformed NRKE cells)
Breast Cancer cell lines = assay: NCI in vitro anticancer screen (SRB), breast cancer subpanel; conditions: 48 hours exposure; average percent growth over the cell lines
Description: as §1, §2, §3, §4

Melanoma cell lines = assay: NCI in vitro anticancer screen (SRB), melanoma subpanel; conditions: 48 hours exposure; average percent growth over the cell lines
Description: as §1, §2, §3, §4, §5, §6

[4] = system: H/1.2 = ras^H Transformed NRKE Cells; assay: cells; conditions: Rattus norvegicus
[5] = system: 3LL = Lewis Lung Carcinoma Cells; assay: cells; conditions: Mus musculus
CNS Cancer cell lines = assay: NCI in vitro anticancer screen (SRB), CNS cancer subpanel; conditions: 48 hours exposure; average percent growth over the cell lines
Description: as §1, §2, §3, §4, §5, §6

[6] = system: K/1 = ras^K Transformed NRKE Cells; assay: cells; conditions: Rattus norvegicus
[7] = system: Non-Small Cell Lung Cancer cell lines; assay: NCI in vitro anticancer screen (SRB), non-small cell lung cancer subpanel; conditions: for Activity (Average PG for highest dose tested) Non-Small Cell Lung Cancer: 48 hours exposure, average percent growth over the cell lines
Description: as §1, §2, §3, §4, §5, §6

Leukemia cell lines = assay: NCI in vitro anticancer screen (SRB), leukemia subpanel; conditions: 48 hours exposure; average percent growth over the cell lines
Description: as §1, §2, §3, §4, §5, §6

[8] = Solubility in dosing vehicle; format: physicochemical; conditions: 10 percent emulphor 620 in Dulbecco's phosphate buffered saline
Description: CY was dissolved in isotonic saline, 20 and 21 were dissolved in corn oil, and 1 was dissolved in 10 percent emulphor 620 in Dulbecco's phosphate buffered saline. […] Starting 1 day after tumor implantation, drugs were administered interperitoneally (IP) at the doses given in Table X. CY and compounds 20 and 21 were given once daily for 8 days. Compound 1 was administered in three doses per day at lower dose levels, and the animals were treated for 7 days. On day 10, tumor masses, percent inhibition of tumor growth, and weight changes were determined.

[9] = system: K/1 = ras^K Transformed NRKE Cells; conditions: for Differential Index K/1: K/1 = ras^K transformed NRKE cells, compared with normal NRKE cells
[10] = system: human tumor cells in hollow fibers; assay: NCI Hollow Fiber Assay for preliminary in vivo testing; conditions: combined IP+SC score
Description: For these assays, human tumor cells are cultivated in polyvinylidene fluoride (PVDF) hollow fibers, and a sample of each cell line is implanted into each of two physiologic compartments (intraperitoneal and subcutaneous) in mice. Each test mouse receives a total of 6 fibers (3 intraperitoneally and 3 subcutaneously) representing 3 distinct cancer cells lines. Three mice are treated with potential antitumor compounds at each of 2 test doses by the intraperitoneal route using a QD×4 treatment schedule. Vehicle controls consist of 6 mice receiving the compound diluent only. The fiber cultures are collected on the day following the last day of treatment. To assess anticancer effects, viable cell mass is determined for each of the cell lines using a formazan dye (MTT) conversion assay. From this, the % T/C can be calculated using the average optical density of the compound treated samples divided by the average optical density of the vehicle controls. In addition, the net increase in cell mass can be determined for each sample as a sample of fiber cultures are assessed for viable cell mass on the day of implantation into mice. Thus, the cytostatic and cytocidal capacities of the test compound can be assessed.
This represents a total of 4 experiments since each experiment contains 3 cell lines. […]

[11] = system: N/4.2-NRKE transformed by the human ras^N gene; conditions: N/4.2 = ras^N transformed NRK cells, compared with normal NRKE cells
[12] = system: H/1.2 = ras^H Transformed NRKE Cells; conditions: H/1.2 = ras^H transformed NRKE cells, compared with normal NRKE cells
[13] = system: 3LL = Lewis Lung Carcinoma Cells; conditions: 3LL = Lewis lung carcinoma cells, compared with normal NRKE cells
[14] = system: N/4.2-NRKE transformed by the human ras^N gene; assay: cells; conditions: N42, read-out: LC50 N/4.2
[15] = NCI toxicity studies, maximum tolerated dose; conditions: mouse, in vivo; mice
Description: As a result of its performance in an initial and a repeat cancer screen, compound 55 has been selected for in vivo testing. Compound 55 was chosen primarily because of its selectivity for non-small cell lung cancer. To date, toxicity studies have been performed, and the maximum tolerated dose in mice has been determined to be 400 mg/kg.

[16] = 120 h, read-out: LC50 3LL, Table VII, concentration giving 50% cell kill, 5 days exposure
[17] = read-out: LC50 3LL, second table headed TABLE VIII

COC(=O)c1nc(-c2ccc3c(n2)C(=O)C(NC(C)=O)=CC3=O)c2[nH]c3ccccc3c2c1C [Compound 1, 7-N-Acetyllavendamycin Methyl Ester]
Activity (Average PG for highest dose tested) Renal Cancer (Renal Cancer cell lines): +63.0%
Activity (Average PG for highest dose tested) Colon Cancer (Colon Cancer cell lines): +80.0%
Activity (Average PG for highest dose tested) Ovarian Cancer [1]: +70.0%
adverse effect of administration as measured by weight loss (in words) (L. major): did not. appear to be adversely affected
Activity (Average PG for highest dose tested) Prostate Cancer [2]: +89.5%
Number Dead Number Treated ([3]; 10 Mg/Kg/Day IP in three doses per day for 7 days): 0/7
Number Dead Number Treated ([3]; 30 Mg/Kg/Day IP in three doses per day for 7 days): 0/7
Number Dead Number Treated ([3]; 100 Mg/Kg/Day IP in three doses per day for 7 days): 0/7
toxicity in tumor-bearing nude mice (in words) ([3]; mouse, in vivo): little or no toxicity
tumor growth inhibition in vivo (in words) ([3]; summary of Table X): excellent tumor growth inhibition
Activity (Average PG for highest dose tested) Breast Cancer (Breast Cancer cell lines): +47.9%
Activity (Average PG for highest dose tested) Melanoma (Melanoma cell lines): +80.3%
CC50 ([4]; 120 h, read-out: LC50 H/1.2): 0.7 µM
CC50 ([4]; read-out: LC50 H/1.2): 0.7 µM
CC50 [5, 16]: > 33 µM
CC50 ([5]; read-out: LC50 3LL, Table VIII): < 33 µM
CC50 [5, 17]: > 33 µM
Activity (Average PG for highest dose tested) CNS Cancer (CNS Cancer cell lines): +60.2%
CC50 at 5 days (in vitro; rat, LC50 NRKE): 0.9 µM
CC50 ([6]; 120 h, read-out: LC50 K/1): 0.1 µM
CC50 ([6]; read-out: LC50 K/1): 0.1 µM
Activity (Average PG for highest dose tested) Non-Small Cell Lung Cancer [7]: +42.6%
Activity (Average PG for highest dose tested) Leukemia (Leukemia cell lines): +36.3%
solubility in vehicle (in words) [8]: poorly soluble
selective toxicity against ras^K oncogene bearing tumor cells as compared to the normal, non-transformed cells ([9]; LC50 NRKE divided by LC50 K/1): 9 fold
CC50 ([9]; rat, 5 days): 0.1 µM

COC(=O)c1nc(-c2ccc3c(n2)C(=O)C(N)=C(Cl)C3=O)c2[nH]c3ccccc3c2c1C [Compound 58, 6-Chlorolavendamycin methyl ester]
Activity (Average PG for highest dose tested) Renal Cancer (Renal Cancer cell lines): −73.7%
Activity (Average PG for highest dose tested) Colon Cancer (Colon Cancer cell lines): −84.9%
Activity (Average PG for highest dose tested) Ovarian Cancer [1]: −39.3%
Activity (Average PG for highest dose tested) Prostate Cancer [2]: −63.0%
Activity (Average PG for highest dose tested) Breast Cancer (Breast Cancer cell lines): −58.7%
Activity (Average PG for highest dose tested) Melanoma (Melanoma cell lines): −86.1%
Activity (Average PG for highest dose tested) CNS Cancer (CNS Cancer cell lines): −52.2%
Total Score [10]: 14
Activity (Average PG for highest dose tested) Non-Small Cell Lung Cancer [7]: −69.3%
Differential Index N/4.2 [11]: 1.09
Differential Index H/1.2 [12]: 1.07
Activity (Average PG for highest dose tested) Leukemia (Leukemia cell lines): −14.6%
Differential Index 3LL [13]: 0.54
Differential Index K/1 [9]: 1.40

COC(=O)c1nc(-c2ccc3c(n2)C(=O)C(N)=CC3=O)c2[nH]c3ccccc3c2c1C [Compound 55, lavendamycin methyl ester, reference compound]
Activity (Average PG for highest dose tested) Renal Cancer (Renal Cancer cell lines): −63.8%
Activity (Average PG for highest dose tested) Colon Cancer (Colon Cancer cell lines): −20.0%
Activity (Average PG for highest dose tested) Ovarian Cancer [1]: −43.5%
Activity (Average PG for highest dose tested) Prostate Cancer [2]: −31.0%
Activity (Average PG for highest dose tested) Breast Cancer (Breast Cancer cell lines): −43.8%
CC50 [14]: 0.06 µM
Activity (Average PG for highest dose tested) Melanoma (Melanoma cell lines): −53.0%
CC50 ([4]; 120 h, read-out: LC50 H/1.2, Table VII, concentration giving 50% cell kill, 5 days exposure): 0.1 µM
CC50 ([4]; read-out: LC50 H/1.2, Table VIII): 0.1 µM
CC50 ([4]; read-out: LC50 H/1.2, Table XV (Example 51)): 0.11 µM
CC50 ([4]; read-out: LC50 H/1.2, second table headed TABLE VIII): 0.1 µM
CC50 [5, 16]: 0.5 µM
CC50 ([5]; read-out: LC50 3LL, Table VIII): 0.5 µM
CC50 ([5]; read-out: LC50 3LL, Table XV (Example 51)): 0.25 µM
CC50 [5, 17]: 0.5 µM
Activity (Average PG for highest dose tested) CNS Cancer (CNS Cancer cell lines): −39.3%
CC50 at 5 days (in vitro): 0.1 µM
CC50 ([6]; 120 h, read-out: LC50 K/1, Table VII, concentration giving 50% cell kill, 5 days exposure): 0.2 µM
CC50 ([6]; read-out: LC50 K/1, Table VIII): 0.2 µM
CC50 ([6]; read-out: LC50 K/1, Table XV (Example 51)): 0.03 µM
CC50 ([6]; read-out: LC50 K/1, second table headed TABLE VIII): 0.2 µM
MTD [15]: 400 mg/kg
Activity (Average PG for highest dose tested) Non-Small Cell Lung Cancer [7]: −60.8%
Selectivity: sensitivity of one of the seven non-small cell lung cancer cell lines relative to average sensitivity of the fifty-five cell lines ([7]; at GI50, TGI and/or LC50): ~100 times more sensitive to compound 55 than the
Differential Index N/4.2 [11]: 1.67
Differential Index H/1.2 [12]: 0.9
Activity (Average PG for highest dose tested) Leukemia (Leukemia cell lines): +30.0%
Differential Index 3LL [13]: 0.4
Differential Index K/1 [9]: 3.33
selective toxicity (Table IX) ([9]; ras^K cells versus normal cells): 0.5
